From patent US20250268877A1 (BIOGEN MA INC., priority 2020, published 2025)
Converted amounts (≈) assume the structure as drawn.

Key:
IRAK4 = IRAK4 (Homo sapiens (Human), UniProt Q9NWZ3); assay: IRAK4 2-hour 1 mM ATP Biochemical Assay (MesoScale Detection format); conditions: 100 pM IRAK4, read-out: IRAK4 IC50
MDR1 = MDR1 (Homo sapiens (Human), UniProt P08183); assay: MDR1-MDCK assay (apparent permeability, efflux ratio); type: in vitro ADME; conditions: human, MDCK-MDR1, 1 μM, read-out: MDR1-MDCK_Efflux Ratio
Chain of MDR1 (P08183 whole entry): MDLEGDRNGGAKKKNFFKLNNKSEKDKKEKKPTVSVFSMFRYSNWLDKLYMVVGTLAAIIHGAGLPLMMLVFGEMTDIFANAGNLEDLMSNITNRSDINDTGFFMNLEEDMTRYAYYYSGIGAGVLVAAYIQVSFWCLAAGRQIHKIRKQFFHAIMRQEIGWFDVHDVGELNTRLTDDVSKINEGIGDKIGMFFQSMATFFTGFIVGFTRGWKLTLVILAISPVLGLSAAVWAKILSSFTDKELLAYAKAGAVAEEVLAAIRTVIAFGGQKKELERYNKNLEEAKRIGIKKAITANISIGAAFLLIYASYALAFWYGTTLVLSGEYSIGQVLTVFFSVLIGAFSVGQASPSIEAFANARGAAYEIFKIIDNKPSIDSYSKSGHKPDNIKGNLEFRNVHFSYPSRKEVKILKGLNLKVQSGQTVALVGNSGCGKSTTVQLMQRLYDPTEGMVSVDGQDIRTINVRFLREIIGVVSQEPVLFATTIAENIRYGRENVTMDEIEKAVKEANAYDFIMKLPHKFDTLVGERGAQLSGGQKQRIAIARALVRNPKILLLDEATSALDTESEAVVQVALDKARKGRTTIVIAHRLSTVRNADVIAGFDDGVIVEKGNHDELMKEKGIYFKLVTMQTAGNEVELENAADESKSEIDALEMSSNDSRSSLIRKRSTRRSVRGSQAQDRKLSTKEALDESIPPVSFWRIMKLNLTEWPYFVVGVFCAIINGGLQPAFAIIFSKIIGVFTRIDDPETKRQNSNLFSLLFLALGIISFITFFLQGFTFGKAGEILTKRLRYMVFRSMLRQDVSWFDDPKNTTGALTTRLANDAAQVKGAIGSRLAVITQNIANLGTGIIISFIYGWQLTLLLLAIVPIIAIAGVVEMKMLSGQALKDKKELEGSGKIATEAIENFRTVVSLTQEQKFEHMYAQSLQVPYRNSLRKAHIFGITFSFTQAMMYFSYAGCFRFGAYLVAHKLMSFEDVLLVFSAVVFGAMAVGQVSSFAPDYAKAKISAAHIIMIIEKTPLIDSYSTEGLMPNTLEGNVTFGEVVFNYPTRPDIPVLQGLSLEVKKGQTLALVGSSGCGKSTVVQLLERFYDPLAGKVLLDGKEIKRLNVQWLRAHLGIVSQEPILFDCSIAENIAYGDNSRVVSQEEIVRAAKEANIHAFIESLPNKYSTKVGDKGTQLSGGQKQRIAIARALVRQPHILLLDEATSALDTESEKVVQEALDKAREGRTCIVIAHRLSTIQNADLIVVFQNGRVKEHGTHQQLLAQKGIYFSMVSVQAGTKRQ

[1] = Kinetic solubility assay (CLND), potassium phosphate buffer pH 6.8; type: physicochemical; conditions: potassium phosphate buffer, pH 6.8, aqueous buffer, kinetic from dmso stock, pH 6.8, 2% DMSO, 24 hours at ambient temperature
[2] = Kpuu assay (in vivo brain-to-plasma partition, unbound); conditions: brain (unbound) versus plasma (unbound); intravenous infusion 4 to 24 h; unbound drug partition coefficient; read-out: Brain Kpu,u

Chain of IRAK4 (Q9NWZ3 whole entry): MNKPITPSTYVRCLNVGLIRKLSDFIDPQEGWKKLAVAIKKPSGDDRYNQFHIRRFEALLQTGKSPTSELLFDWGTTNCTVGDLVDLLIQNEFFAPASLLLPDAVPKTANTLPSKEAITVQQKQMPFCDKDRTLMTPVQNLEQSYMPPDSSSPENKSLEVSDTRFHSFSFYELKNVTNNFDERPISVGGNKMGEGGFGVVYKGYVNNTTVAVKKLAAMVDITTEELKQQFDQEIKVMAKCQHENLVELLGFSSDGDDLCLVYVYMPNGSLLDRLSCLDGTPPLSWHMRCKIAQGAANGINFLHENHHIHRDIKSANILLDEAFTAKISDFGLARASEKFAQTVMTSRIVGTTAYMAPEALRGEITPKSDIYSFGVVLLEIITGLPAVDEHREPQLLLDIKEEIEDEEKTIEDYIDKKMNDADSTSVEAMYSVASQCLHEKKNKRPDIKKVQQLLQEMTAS

| IC50 (IRAK4) [nM] | efflux ratio at 120 min, 1 μM (MDR1) | solubility at 24 h [1] [µg/mL] | Kp [2] | Structure (SMILES) |
| --- | --- | --- | --- | --- |
| 0.5 | 2.82 | 67.7 (≈ 141 µM) | 0.7 | COCC12CC(n3cc4cc(C(=O)Nc5cccn(C6CC6)c5=O)c(OC(C)C)cc4n3)(CO1)C2 [Example 12, N-(1-cyclopropyl-2-oxo-1,2-dihydropyridin-3-yl)-6-isopropoxy-2-(1-(methoxymethyl)-2-oxabicyclo[2.1.1]hexan-4-yl)-2H-indazole-5-carboxamide] |
| 0.2 | 4.8 | 36 (≈ 75.1 µM) | 0.9 | COCC12CC(n3cc4cc(C(=O)Nc5cccn(C6CC6)c5=O)c(OC(C)C)nc4n3)(CO1)C2 [Example 11, N-(1-cyclopropyl-2-oxo-1,2-dihydropyridin-3-yl)-6-isopropoxy-2-(1-(methoxymethyl)-2-oxabicyclo[2.1.1]hexan-4-yl)-2H-pyrazolo[3,4-b]pyridine-5-carboxamide] |
| 0.2 | 2.58 | – | 0.6 | COC[C@@]12CC[C@@](n3cc4cc(C(=O)Nc5cccn(C6CC6)c5=O)c(OC(C)C)nc4n3)(CO1)C2 [Example 30, N-(1-cyclopropyl-2-oxo-1,2-dihydropyridin-3-yl)-6-isopropoxy-2-((1S,4S)-1-(methoxymethyl)-2-oxabicyclo[2.2.1]heptan-4-yl)-2H-pyrazolo[3,4-b]pyridine-5-carboxamide] |
| 0.4 | 0.88 | 0.2 (≈ 0.444 µM) | – | CC(C)Oc1nc2nn(C34COC(C)(C3)C4)cc2cc1C(=O)Nc1ccnn(C2CC2)c1=O [Example 46, N-(2-cyclopropyl-3-oxo-2,3-dihydropyridazin-4-yl)-6-isopropoxy-2-(1-methyl-2-oxabicyclo[2.1.1]hexan-4-yl)-2H-pyrazolo[3,4-b]pyridine-5-carboxamide] |
| 0.8 | 2.56 | 55.8 (≈ 124 µM) | – | CC(C)Oc1cc2nn(C34COC(C3)C4)cc2cc1C(=O)Nc1cccn([C@H]2C[C@H]2C)c1=O [Example 79, 2-(2-oxabicyclo[2.1.1]hexan-4-yl)-6-isopropoxy-N-(1-((1S,2R)-2-methylcyclopropyl)-2-oxo-1,2-dihydropyridin-3-yl)-2H-indazole-5-carboxamide] |
| 0.8 | 3.71 | 60.5 (≈ 122 µM) | – | COCC12CC(n3cc4cc(C(=O)Nc5cccn([C@@H]6C[C@H]6F)c5=O)c(OC(C)C)cc4n3)(CO1)C2 (single isomer, unassigned) [Example 55] |
| 0.8 | 3.22 | 13 (≈ 25.5 µM) | – | COCC12CC(n3cc4cc(C(=O)Nc5cccn([C@@H]6C[C@H]6F)c5=O)c(OC5CCC5)nc4n3)(CO1)C2 (single isomer, unassigned) [Example 65] |
| 1.5 | 4.05 | 52.3 (≈ 103 µM) | – | COCC12CC(n3cc4cc(C(=O)Nc5cccn([C@H]6C[C@@H]6F)c5=O)c(OC5CCC5)cc4n3)(CO1)C2 (single isomer, unassigned) [Example 58] |
| 0.5 | 5.06 | 58.8 (≈ 118 µM) | – | COCC12CC(n3cc4cc(C(=O)Nc5cccn([C@@H]6C[C@H]6F)c5=O)c(OC(C)C)nc4n3)(CO1)C2 (single isomer, unassigned) [Example 63] |
| 0.7 | 2.17 | 33.8 (≈ 70.3 µM) | – | CC(C)Oc1cc2nn(C34COC(CF)(C3)C4)cc2cc1C(=O)Nc1cccn([C@H]2C[C@H]2C)c1=O [Example 82, 2-(1-(fluoromethyl)-2-oxabicyclo[2.1.1]hexan-4-yl)-6-isopropoxy-N-(1-((1S,2R)-2-methylcyclopropyl)-2-oxo-1,2-dihydropyridin-3-yl)-2H-indazole-5-carboxamide] |
| 0.5 | 1.59 | 7.9 (≈ 17.1 µM) | – | CC(C)Oc1cc2nn([C@]34CC[C@](C)(C3)OC4)cc2cc1C(=O)Nc1cccn(C2CC2)c1=O [Example 3, N-(1-cyclopropyl-2-oxo-1,2-dihydropyridin-3-yl)-6-isopropoxy-2-((1R,4R)-1-methyl-2-oxabicyclo[2.2.1]heptan-4-yl)-2H-indazole-5-carboxamide] |
| 0.2 | 2.09 | 44.6 (≈ 102 µM) | – | CC(C)Oc1nc2nn([C@H]3CCCOC3)cc2cc1C(=O)Nc1cccn(C2CC2)c1=O [Example 16, (S)—N-(1-cyclopropyl-2-oxo-1,2-dihydropyridin-3-yl)-6-isopropoxy-2-(tetrahydro-2H-pyran-3-yl)-2H-pyrazolo[3,4-b]pyridine-5-carboxamide] |
| 1.1 | 5.09 | 46.7 (≈ 104 µM) | – | C[C@@H]1C[C@@H]1n1cccc(NC(=O)c2cc3cn(C45COC(C4)C5)nc3nc2OC2CC2)c1=O [Example 91, 2-(2-oxabicyclo[2.1.1]hexan-4-yl)-6-cyclopropoxy-N-(1-((1S,2R)-2-methylcycloproyl)-2-oxo-1,2-dihydropyridin-3-yl)-2H-pyrazolo[3,4-b]pyridine-5-carboxamide] |
| – | 3.8 | 24.9 (≈ 53.3 µM) | 0.7 | CC(C)Oc1nc2nn(C34COC(C)(C3)C4)cc2cc1C(=O)Nc1cccn([C@H]2C[C@H]2F)c1=O (single isomer, unassigned) [Example 34] |
| 0.5 | 1.75 | 52.9 (≈ 110 µM) | – | CC(C)Oc1cc2nn([C@@]34CC[C@@](C)(C3)OC4)cc2cc1C(=O)Nc1cccn([C@H]2C[C@@H]2F)c1=O (single isomer, unassigned) [Example 60] |

| Structure (SMILES) | IC50 (IRAK4) [nM] | efflux ratio at 120 min, 1 μM (MDR1) | solubility at 24 h [1] [µg/mL] | Kp [2] |
| --- | --- | --- | --- | --- |
| CC[C@H](C)Oc1nc2nn(C34COC(C)(C3)C4)cc2cc1C(=O)Nc1cccn(C2CC2)c1=O [Example 15, (S)-6-(sec-butoxy)-N-(1-cyclopropyl-2-oxo-1,2-dihydropyridin-3-yl)-2-(1-methyl-2-oxabicyclo[2.1.1]hexan-4-yl)-2H-pyrazolo[3,4-b]pyridine-5-carboxamide] | 0.5 | 1.4 | – | 0.9 |
| CC12CC(n3cc4cc(C(=O)Nc5cccn([C@@H]6C[C@@H]6F)c5=O)c(OC5CCC5)nc4n3)(CO1)C2 (racemic) [Example 25, 6-cyclobutoxy-N-(1-(cis-2-fluorocyclopropyl)-2-oxo-1,2-dihydropyridin-3-yl)-2-(1-methyl-2-oxabicyclo[2.1.1]hexan-4-yl)-2H-pyrazolo[3,4-b]pyridine-5-carboxamide] | 0.3 | 2.71 | 29.2 (≈ 60.9 µM) | – |
| CC12CC(n3cc4cc(C(=O)Nc5cccn(C6CC6)c5=O)c(OC5CCC5)nc4n3)(CO1)C2 [Example 24, 6-cyclobutoxy-N-(1-cyclopropyl-2-oxo-1,2-dihydropyridin-3-yl)-2-(1-methyl-2-oxabicyclo[2.1.1]hexan-4-yl)-2H-pyrazolo[3,4-b]pyridine-5-carboxamide] | 0.4 | 2.53 | 5.53 (≈ 12 µM) | – |
| C[C@@H]1C[C@@H]1n1cccc(NC(=O)c2cc3cn(C45COC(C)(C4)C5)nc3nc2OC2CCC2)c1=O [Example 95, 6-cyclobutoxy-2-(1-methyl-2-oxabicyclo[2.1.1]hexan-4-yl)-N-(1-((1S,2R)-2-methylcyclopropyl)-2-oxo-1,2-dihydropyridin-3-yl)-2H-pyrazolo[3,4-b]pyridine-5-carboxamide] | 0.8 | 1.09 | 48.3 (≈ 102 µM) | – |
